According to patent US7875647B2, “Heteroaryl-pyrazole derivatives as cannabinoid CB1 receptor antagonists” (Green Cross Corporation, priority 2006, dated 2011):

These compounds were tested against T1, Cannabinoid-1 receptor (CB1R) (Rattus norvegicus, UniProt P20272) (assay: Cannabinoid-1 receptor (CB1R) binding affinity assay ([3H]CP-55940, rat CB-1 receptor binding protocol)). Details: IC50(nM), brain tissue of SD rats, [3H]CP-55940, 30° C. 60 min.
T1 construct: The tissue obtained from the brain of SD rats was homogenized; from tissue; host or cells: brain of SD rats (membrane pellet of the homogenate)
Protocol: The tissue obtained from the brain of SD rats was homogenized with a Dounce homogenate system in TME (50 mM Tris, 3 mM MgCl2 and 1 mM EDTA, pH 7.4) at 4° C., and the homogenate was centrifuged at 48,000 g for 30 min. at 4° C. The pellet was resuspended in 5 ml of TME and the suspension was divided into aliquots and stored at −70° C. until its use in the following assay.
The tissue concentrations were determined by Bradford protein analysis, and 148 μl of brain tissue of the required concentration was added to the plate. The plate was covered and placed in a 30° C. incubator for 60 min, and then transformed on GF/B filtermat pretreated in polyethylenimine (PEI) using a cell harvester. Each filter was washed five times and dried at 60° C. for 1 hr. Then, the degree of radioactivity retained by the filter was measured using Wallac Microbeta™ (PerkinElmer Life Sciences, Inc., Massachusetts, U.S.A.) and the activity of the compound for inhibiting CB1 receptor was determined therefrom.

T1 sequence (P20272 whole entry): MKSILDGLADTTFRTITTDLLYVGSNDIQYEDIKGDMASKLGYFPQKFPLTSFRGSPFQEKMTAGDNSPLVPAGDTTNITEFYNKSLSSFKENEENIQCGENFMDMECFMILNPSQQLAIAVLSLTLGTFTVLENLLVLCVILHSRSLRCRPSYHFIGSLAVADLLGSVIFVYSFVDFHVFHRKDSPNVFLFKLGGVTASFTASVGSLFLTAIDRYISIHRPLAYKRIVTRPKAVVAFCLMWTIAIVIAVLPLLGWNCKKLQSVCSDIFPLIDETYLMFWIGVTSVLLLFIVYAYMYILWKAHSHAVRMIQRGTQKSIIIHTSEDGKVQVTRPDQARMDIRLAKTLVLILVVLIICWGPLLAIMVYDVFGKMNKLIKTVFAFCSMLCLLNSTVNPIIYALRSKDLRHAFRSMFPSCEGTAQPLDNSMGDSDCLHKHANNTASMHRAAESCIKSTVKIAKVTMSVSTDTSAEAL

SMILES | IC50
CC(=O)OCc1c(-c2nnc(C3(c4ccc(Cl)cc4)CC3)o2)nn(-c2ccc(Cl)cc2Cl)c1-c1ccc(Cl)cc1 [Example 197, (5-(4-chlorophenyl)-3-(5-(1-(4-chlorophenyl)cyclopropyl)-1,3,4-oxadiazol-2-yl)-1-(2,4-dichlorophenyl)-1H-pyrazol-4-yl)methyl acetate] | 7.07 nM

Same assay, conditions: brain tissue of SD rats, [3H]CP-55940, 30° C. 60 min; read-out: IC50

SMILES | IC50
CCCc1c(-c2nnc(C3(c4ccc(Cl)cc4)CC3)o2)nn(-c2ccc(Cl)cc2Cl)c1-c1ccc(Cl)cc1 [Example 186, 2-(5-(4-chlorophenyl)-1-(2,4-dichlorophenyl)-4-propyl-1H-pyrazol-3-yl)-5-(1-(4-chlorophenyl)cyclopropyl)-1,3,4-oxadiazole] | 12.1 nM
CCCc1c(-c2nnc(C3(c4ccc(Cl)cc4)CCC3)o2)nn(-c2ccc(Cl)cc2Cl)c1-c1ccc(Cl)cc1 [Example 187, 2-(5-(4-chlorophenyl)-1-(2,4-dichlorophenyl)-4-propyl-1H-pyrazol-3-yl)-5-(1-(4-chlorophenyl)cyclobutyl)-1,3,4-oxadiazole] | 11.1 nM
CCc1c(-c2nnc(C3(c4ccccc4)CCCC3)o2)nn(-c2ccc(Cl)cc2Cl)c1-c1ccc(Br)cc1 [Example 188, 2-(5-(4-bromophenyl)-1-(2,4-dichlorophenyl)-4-ethyl-1H-pyrazol-3-yl)-5-(1-phenylcyclopentyl)-1,3,4-oxadiazole] | 15.5 nM
CC(C)c1c(-c2nnc(C3(C(F)(F)F)CC3)o2)nn(-c2ccc(Cl)cc2Cl)c1-c1ccc(Cl)cc1 [Example 190, 2-(5-(4-chlorophenyl)-1-(2,4-dichlorophenyl)-4-isopropyl-1H-pyrazol-3-yl)-5-(1-(trifluoromethyl)cyclopropyl)-1,3,4-oxadiazole] | 15 nM
CCCc1c(-c2nnc(C3(C(F)(F)F)CC3)o2)nn(-c2ccc(Cl)cc2Cl)c1-c1ccc(Cl)cc1 [Example 191, 2-(5-(4-chlorophenyl)-1-(2,4-dichlorophenyl)-4-propyl-1H-pyrazol-3-yl)-5-(1-(trifluoromethyl)cyclopropyl)-1,3,4-oxadiazole] | 15 nM
CC(=O)OCc1c(-c2nnc(C(C)(C)C)o2)nn(-c2ccc(Cl)cc2Cl)c1-c1ccc(Br)cc1 [Example 195, (5-(4-bromophenyl)-3-(5-tert-butyl-1,3,4-oxadiazol-2-yl)-1-(2,4-dichlorophenyl)-1H-pyrazol-4-yl)methyl acetate] | 12.1 nM
CC(=O)OCc1c(-c2nnc(C(C)(C)C)o2)nn(-c2ccc(Cl)cc2Cl)c1-c1ccc(Cl)cc1 [Example 196, (3-(5-tert-butyl-1,3,4-oxadiazol-2-yl)-5-(4-chlorophenyl)-1-(2,4-dichlorophenyl)-1H-pyrazol-4-yl)methyl acetate] | 22.4 nM
CC(C)(C)c1nnc(-c2nn(-c3ccc(Cl)cc3Cl)c(-c3ccc(Cl)cc3)c2COC(=O)c2ccccc2)o1 [Example 198, (3-(5-tert-butyl-1,3,4-oxadiazol-2-yl)-5-(4-chlorophenyl)-1-(2,4-dichlorophenyl)-1H-pyrazol-4-yl)methyl benzoate] | 68.8 nM
CC(C)(C)c1nnc(-c2nn(-c3ccc(Cl)cc3Cl)c(-c3ccc(Br)cc3)c2CO)o1 [Example 200, (5-(4-bromophenyl)-3-(5-tert-butyl-1,3,4-oxadiazol-2-yl)-1-(2,4-dichlorophenyl)-1H-pyrazol-4-yl)methanol] | 6.35 nM
OCc1c(-c2nnc(C3(c4ccc(Cl)cc4)CC3)o2)nn(-c2ccc(Cl)cc2Cl)c1-c1ccc(Cl)cc1 [Example 201, (5-(4-chlorophenyl)-3-(5-(1-(4-chlorophenyl)cyclopropyl)-1,3,4-oxadiazol-2-yl)-1-(2,4-dichlorophenyl)-1H-pyrazol-4-yl)methanol] | 4.02 nM
CC(C)(C)c1nnc(-c2nn(-c3ccc(Cl)cc3Cl)c(-c3ccc(Cl)cc3)c2C=O)o1 [Example 202, 3-(5-tert-butyl-1,3,4-oxadiazol-2-yl)-5-(4-chlorophenyl)-1-(2,4-dichlorophenyl)-1H-pyrazole-4-carbaldehyde] | 36.2 nM
CC(C)(C)c1nnc(-c2nn(-c3ccc(Cl)cc3Cl)c(-c3ccc(Br)cc3)c2C=O)o1 [Example 203, 5-(4-bromophenyl)-3-(5-tert-butyl-1,3,4-oxadiazol-2-yl)-1-(2,4-dichlorophenyl)-1H-pyrazole-4-carbaldehyde] | 18.8 nM
CCCCOCc1c(-c2nnc(C(C)(C)C)o2)nn(-c2ccc(Cl)cc2Cl)c1-c1ccc(Cl)cc1 [Example 206, 2-(4-(butoxymethyl)-5-(4-chlorophenyl)-1-(2,4-dichlorophenyl)-1H-pyrazol-3-yl)-5-tert-butyl-1,3,4-oxadiazole] | 113 nM
CC(O)c1c(-c2nnc(C(C)(C)C)o2)nn(-c2ccc(Cl)cc2Cl)c1-c1ccc(Cl)cc1 (centres unmarked) [Example 207, 1-(3-(5-tert-butyl-1,3,4-oxadiazol-2-yl)-5-(4-chlorophenyl)-1-(2,4-dichlorophenyl)-1H-pyrazol-4-yl)ethanol] | 10.1 nM
C=C(C)c1c(-c2nnc(C(C)(C)C)o2)nn(-c2ccc(Cl)cc2Cl)c1-c1ccc(Cl)cc1 [Example 219, 2-tert-butyl-5-(5-(4-chlorophenyl)-1-(2,4-dichlorophenyl)-4-(prop-1-en-2-yl)-1H-pyrazol-3-yl)-1,3,4-oxadiazole] | 4.83 nM

Results, then the compound that gave them:

IC50 | SMILES
5.39 nM | O=Cc1c(-c2nnc(C3(c4ccc(Cl)cc4)CC3)o2)nn(-c2ccc(Cl)cc2Cl)c1-c1ccc(Cl)cc1 [Example 204, 5-(4-chlorophenyl)-3-(5-(1-(4-chlorophenyl)cyclopropyl)-1,3,4-oxadiazol-2-yl)-1-(2,4-dichlorophenyl)-1H-pyrazole-4-carbaldehyde]
15.4 nM | COCc1c(-c2nnc(C(C)(C)C)o2)nn(-c2ccc(Cl)cc2Cl)c1-c1ccc(Cl)cc1 [Example 205, 2-tert-butyl-5-(5-(4-chlorophenyl)-1-(2,4-dichlorophenyl)-4-(methoxymethyl)-1H-pyrazol-3-yl)-1,3,4-oxadiazole]
6.72 nM | CC(O)c1c(-c2nnc(C(C)(C)C)o2)nn(-c2ccc(Cl)cc2Cl)c1-c1ccc(Br)cc1 (centres unmarked) [Example 208, 1-(5-(4-bromophenyl)-3-(5-tert-butyl-1,3,4-oxadiazol-2-yl)-1-(2,4-dichlorophenyl)-1H-pyrazol-4-yl)ethanol]
5.77 nM | CC(O)c1c(-c2nnc(C3(c4ccc(Cl)cc4)CC3)o2)nn(-c2ccc(Cl)cc2Cl)c1-c1ccc(Cl)cc1 (centres unmarked) [Example 209, 1-(5-(4-chlorophenyl)-3-(5-(1-(4-chlorophenyl)cyclopropyl)-1,3,4-oxadiazol-2-yl)-1-(2,4-dichlorophenyl)-1H-pyrazol-4-yl)ethanol]
14.1 nM | CC(F)c1c(-c2nnc(C(C)(C)C)o2)nn(-c2ccc(Cl)cc2Cl)c1-c1ccc(Cl)cc1 (centres unmarked) [Example 210, 2-tert-butyl-5-(5-(4-chlorophenyl)-1-(2,4-dichlorophenyl)-4-(1-fluoroethyl)-1H-pyrazol-3-yl)-1,3,4-oxadiazole]
12.1 nM | CC(F)c1c(-c2nnc(C(C)(C)C)o2)nn(-c2ccc(Cl)cc2Cl)c1-c1ccc(Br)cc1 (centres unmarked) [Example 211, 2-(5-(4-bromophenyl)-1-(2,4-dichlorophenyl)-4-(1-fluoroethyl)-1H-pyrazol-3-yl)-5-tert-butyl-1,3,4-oxadiazole]
4.97 nM | CC(F)c1c(-c2nnc(C3(c4ccc(Cl)cc4)CC3)o2)nn(-c2ccc(Cl)cc2Cl)c1-c1ccc(Cl)cc1 (centres unmarked) [Example 212, 2-(5-(4-chlorophenyl)-1-(2,4-dichlorophenyl)-4-(1-fluoroethyl)-1H-pyrazol-3-yl)-5-(1-(4-chlorophenyl)cyclopropyl)-1,3,4-oxadiazole]
49.4 nM | CC(=O)c1c(-c2nnc(C(C)(C)C)o2)nn(-c2ccc(Cl)cc2Cl)c1-c1ccc(Cl)cc1 [Example 213, 1-(3-(5-tert-butyl-1,3,4-oxadiazol-2-yl)-5-(4-chlorophenyl)-1-(2,4-dichlorophenyl)-1H-pyrazol-4-yl)ethanone]
11.9 nM | CC(=O)c1c(-c2nnc(C(C)(C)C)o2)nn(-c2ccc(Cl)cc2Cl)c1-c1ccc(Br)cc1 [Example 214, 1-(5-(4-bromophenyl)-3-(5-tert-butyl-1,3,4-oxadiazol-2-yl)-1-(2,4-dichlorophenyl)-1H-pyrazol-4-yl)ethanone]
10.8 nM | CC(=O)c1c(-c2nnc(C3(c4ccc(Cl)cc4)CC3)o2)nn(-c2ccc(Cl)cc2Cl)c1-c1ccc(Cl)cc1 [Example 215, 1-(5-(4-chlorophenyl)-3-(5-(1-(4-chlorophenyl)cyclopropyl)-1,3,4-oxadiazol-2-yl)-1-(2,4-dichlorophenyl)-1H-pyrazol-4-yl)ethanone]
57.3 nM | CC(=O)Oc1c(-c2nnc(C(C)(C)C)o2)nn(-c2ccc(Cl)cc2Cl)c1-c1ccc(Cl)cc1 [Example 216, 3-(5-tert-butyl-1,3,4-oxadiazol-2-yl)-5-(4-chlorophenyl)-1-(2,4-dichlorophenyl)-1H-pyrazol-4-yl acetate]
22.6 nM | CC(C)(C)c1nnc(-c2nn(-c3ccc(Cl)cc3Cl)c(-c3ccc(Cl)cc3)c2C(C)(C)O)o1 [Example 217, 2-(3-(5-tert-butyl-1,3,4-oxadiazol-2-yl)-5-(4-chlorophenyl)-1-(2,4-dichlorophenyl)-1H-pyrazol-4-yl)propan-2-ol]
17.1 nM | CC(C)(C)c1nnc(-c2nn(-c3ccc(Cl)cc3Cl)c(-c3ccc(Br)cc3)c2C(C)(C)O)o1 [Example 218, 2-(5-(4-bromophenyl)-3-(5-tert-butyl-1,3,4-oxadiazol-2-yl)-1-(2,4-dichlorophenyl)-1H-pyrazol-4-yl)propan-2-ol]
